The results in this text go back to patent US9873715B2, “Macrolides useful as anticancer agents” (PIERRE FABRE MEDICAMENT, priority 2013, dated 2018).

Type in all cases: cell-based
Assay [1] has as its system KB-V1: vinblastine-resistant human cervix carcinoma cell line. Kind of assay: cell survival (ATP-lite luminescence), KB-V1. Particulars: KB-V1, 48 hours incubation, read-out: EC50 for various tumor cell lines: KB-V1. On the procedure:
(§1) Molecules (I-1), (I-2) and (I-3) were identified during a test of antiproliferative activity on a metastatic melanoma cell line, WM266-4.
(§2) The cells are seeded in 96-well plates in phenol red-free RPMI 1640 medium (Seromed) to which is added 10% fetal calf serum (100 μl/well, 1·10^4 to 3·10^4 cells/ml depending on the line studied). After incubation for 24 hours at 37° C. in an incubator (5% CO2), the medium is replaced with the same medium further containing the compound to be tested (various concentrations are used) and then the plates are incubated for an additional 48 hours. Cell survival is evaluated by measuring luminescence after ATP release in the medium using the cell lysis solutions, luciferase and luciferin, included in the ATP-lite-M™ kit as recommended by the manufacturer (Packard, Rungis, France). Each experimental condition was tested at least three times in sextuplicate.

The subject of assay [2] is SkoV3: human ovarian adenocarcinoma cell line. Briefly: cell survival (ATP-lite luminescence), SkoV3. Particulars: SK-OV-3, SkoV3, 48 hours incubation, read-out: EC50 for various tumor cell lines: SkoV3. The protocol:
as §1, §2

In assay [3] the test system is LoVo: human colon adenocarcinoma cell line. Briefly: cell survival (ATP-lite luminescence), LoVo. Particulars: 48 hours incubation, read-out: EC50 for various tumor cell lines: LoVo. The protocol: as §1, §2
The subject of assay [4] is BxPC3: human pancreatic adenocarcinoma cell line. Briefly: cell survival (ATP-lite luminescence), BxPC3. Particulars: BXPC-3, BxPC3, 48 hours incubation, read-out: EC50 for various tumor cell lines: BxPC3. On the procedure: as §1, §2
Assay [5] has as its system A549: human lung adenocarcinoma cell line. Kind of assay: cell survival (ATP-lite luminescence), A549. As to conditions: A549, 48 hours incubation, read-out: EC50 for various tumor cell lines: A549. The protocol:
as §1, §2

The test system of assay [6] is Namalwa: Burkitt lymphoma cell line. Kind of assay: cell survival (ATP-lite luminescence), Namalwa. As to conditions: 48 hours incubation, read-out: EC50 for various tumor cell lines: Namalwa. The protocol: as §1, §2
Assay [7] relates to KB: human oral carcinoma cell line. Kind of assay: cell survival (ATP-lite luminescence), KB. Particulars: 48 hours incubation, read-out: EC50 for various tumor cell lines: KB. On the procedure:
as §1, §2

Some results are limits rather than exact numbers.

By EC50 is commonly meant the concentration at which the effect is half-maximal. Regarding `COCC1OC(OC2CC(OC)CC3C2C(C)=CC2/C=C/C=C/C(C)C(/C=C/c4nc(C(C)CCCC#N)oc4C)OC(=O)CC/C=C(C)\C=C\C23C)C(OC)C(O)C1O` (stereo not drawn) [Molecule (I-1)], the EC50 in assay [1] was 0.7 nM; in assay [2], 36000 nM; in assay [3], 0.04 nM; in assay [4] it was 0.22 nM; in assay [5] it was 0.011 nM; in assay [6], 0.31 nM. Further, the EC50 in assay [7] was found to be 0.31 nM.

Regarding `COCC1OC(OC2CC(OC)CC3C2C(C)=CC2/C=C/C=C/C(C)C(/C=C/c4nc(C(C)CCCC#N)oc4C)OC(=O)CC/C=C(C)\C=C\C23C)C(OC)C(OC2OCC(OC)C(O)C2O)C1O` (stereo not drawn) [Molecule (I-2)], the half-maximal effective concentration (EC50) in assay [1] was 0.49 nM; in assay [2], 1300 nM; in assay [3] it was 0.011 nM; in assay [4] it was 0.21 nM; in assay [5], below 0.001 nM; in assay [6] it was 0.36 nM. In addition, in assay [7], the EC50 is 0.3 nM.

Consider `CNC(=O)OC1C(OC)COC(OC2C(O)C(COC)OC(OC3CC(OC)CC4C3C(C)=CC3/C=C/C=C/C(C)C(/C=C/c5nc(C(C)CCCC#N)oc5C)OC(=O)CC/C=C(C)\C=C\C34C)C2OC)C1O` (stereo not drawn) [Molecule (I-3)], for which the EC50 is 0.73 nM in assay [1]; 320 nM in assay [2]; below 0.01 nM in assay [3]; 0.012 nM in assay [4]; below 0.001 nM in assay [5]; 0.32 nM in assay [6]. Moreover, the EC50 in assay [7] worked out at 0.024 nM.
